Laboratory results taken from PubChem BioAssay AID651642 (Sanford-Burnham Center for Chemical Genomics, 2012).
pIC50: −log10 of the molar value.

Tests used:
H9c2 = assay: cardiomyocyte survival under oxidative or metabolic stress – cell-based, panel, H9c2 and HL-1, H2O2, 2-deoxyglucose, ATP luminescence, SAR follow-up (AID 651642)
HL-1 = assay: as above
[1] = H9c2/HL-1 cardiomyocyte 2-deoxyglucose damage, mean of runs, with 2-deoxyglucose, mean IC50 across panel
[2] = H9c2/HL-1 cardiomyocyte 2-deoxyglucose damage, run 1, with 2-deoxyglucose
[3] = H9c2/HL-1 cardiomyocyte 2-deoxyglucose damage, run 2, with 2-deoxyglucose
[4] = H9c2/HL-1 cardiomyocyte 2-deoxyglucose damage, run 3, with 2-deoxyglucose
[5] = H9c2/HL-1 cardiomyocyte 2-deoxyglucose damage, run 4, with 2-deoxyglucose
[6] = H9c2/HL-1 cardiomyocyte H2O2 oxidative damage, mean of runs, with H2O2, mean IC50 across panel
[7] = H9c2/HL-1 cardiomyocyte H2O2 oxidative damage, run 1, with H2O2
[8] = H9c2/HL-1 cardiomyocyte H2O2 oxidative damage, run 2, with H2O2
[9] = H9c2/HL-1 cardiomyocyte H2O2 oxidative damage, run 3, with H2O2
[10] = H9c2/HL-1 cardiomyocyte H2O2 oxidative damage, run 4, with H2O2

SMILES | pIC50 (H9c2; [1]) | pIC50 (H9c2; [2]) | pIC50 (H9c2; [3]) | pIC50 (H9c2; [4]) | pIC50 (H9c2; [5]) | pIC50 (H9c2; [6]) | pIC50 (H9c2; [7]) | pIC50 (H9c2; [8]) | pIC50 (H9c2; [9]) | pIC50 (H9c2; [10]) | pIC50 (HL-1; [1]) | pIC50 (HL-1; [2]) | pIC50 (HL-1; [3]) | pIC50 (HL-1; [4]) | pIC50 (HL-1; [5]) | pIC50 (HL-1; [7]) | pIC50 (HL-1; [8]) | pIC50 (HL-1; [9]) | pIC50 (HL-1; [10]) | pIC50 (HL-1; [6])
COc1ccc2c(c1OC)C(=O)N1c3ccccc3C(=O)N(Cc3ccc(C)cc3C)C21 (stereo unspecified) | < 4.10 | < 4.10 | < 4.10 | < 4.10 | < 4.10 | < 4.10 | < 4.10 | < 4.10 | < 4.10 | < 4.10 | < 4.10 | < 4.10 | < 4.10 | < 4.10 | < 4.10 | < 4.10 | < 4.10 | < 4.10 | < 4.10 | 
COc1ccc2c(c1OC)C(=O)N1c3ccccc3C(=O)N(Cc3ccccc3Br)C21 (stereo unspecified) | < 4.10 | < 4.10 | < 4.10 | < 4.10 | < 4.10 |  | < 4.10 | 5.69 | < 4.10 | < 4.10 | 4.87 | 5.60 | 5.55 | 4.86 | 4.46 | < 4.10 | < 4.10 | < 4.10 | < 4.10 | < 4.10
COc1cc(-c2cc(C(=O)Nc3cccc(C(=O)N4CCOCC4)c3)c3ccccc3n2)cc(OC)c1OC |  | < 4.10 | 4.22 | < 4.10 | < 4.10 | 5.23 | 5.21 | 5.11 | 5.33 | 5.29 | 4.72 | 5.09 | 4.95 | 4.56 | 4.54 | 4.89 | 4.78 | 4.97 | 4.74 | 4.83
COc1ccc(NC(=O)CNC(=O)c2cc(-c3cc(OC)c(OC)c(OC)c3)nc3ccccc23)cc1 | 4.89 | 4.86 | 4.82 | 4.98 | 4.92 |  | 5.40 | 5.34 | < 4.10 | < 4.10 | 5.18 | 5.39 | 5.37 | 5.07 | 5.01 | 5.30 | 5.05 | 5.15 | 5.11 | 5.15
COc1ccccc1CN1C(=O)c2ccccc2N2C(=O)c3c(ccc(OC)c3OC)C12 (stereo unspecified) |  | < 4.10 | < 4.10 | 4.36 | 4.34 |  | < 4.10 | 6.52 | < 4.10 | < 4.10 | 5.27 | 5.54 | 5.40 | 5.16 | 5.11 | < 4.10 | < 4.10 | 5.34 | 4.92 | 
CCOC(=O)c1cccc(NC(=O)CNC(=O)c2cc(-c3cc(OC)c(OC)c(OC)c3)nc3ccc(C)cc23)c1 | 5.57 | 5.50 | 5.45 | 5.73 | 5.66 | 6.18 | 6.14 | 6.07 | 6.29 | 6.24 | 5.66 | 5.96 | 5.84 | 5.54 | 5.47 | 5.54 | 5.48 | 5.84 | 5.35 | 5.52
CCNC(=O)c1cccc(NC(=O)c2cc(-c3cc(OC)c(OC)c(OC)c3)nc3ccccc23)c1 | 4.65 | 4.67 | 4.65 | 4.65 | 4.64 | 5.40 | 5.31 | 5.31 | 5.54 | 5.47 | 5.03 | 5.29 | 5.20 | 4.89 | 4.89 | 5.42 | 4.94 | 5.43 | 5.11 | 5.17
COc1ccc2c(c1OC)C(=O)N1c3ccccc3C(=O)N(Cc3ccccc3Cl)C21 (stereo unspecified) | 4.80 | 4.77 | 4.70 | 4.92 | 4.85 |  | 6.25 | 6.13 | < 4.10 | < 4.10 | 5.64 | 5.98 | 5.81 | 5.57 | 5.40 | < 4.10 | < 4.10 | < 4.10 | < 4.10 | < 4.10
CCOC(=O)c1cccc(NC(=O)c2cc(-c3cc(OC)c(OC)c(OC)c3)nc3ccc(OC)cc23)c1 |  | < 4.10 | 4.61 | 4.45 | 4.35 | 5.59 | 5.57 | 5.53 | 5.69 | 5.59 |  | 5.56 | 5.56 | < 4.10 | < 4.10 | 5.37 | 5.35 | < 4.10 | 5.64 | 
COc1cc(-c2cc(C(=O)NCC(=O)Nc3cccc(C(C)=O)c3)c3cccc(Cl)c3n2)cc(OC)c1OC |  | < 4.10 | 4.49 | 5.14 | 5.09 | 6.19 | 5.57 | 5.46 | 5.59 | 5.46 | 5.18 | 5.26 | 5.04 | 5.27 | 5.19 | < 4.10 | < 4.10 | 5.39 | 5.17 | 
COc1ccc2nc(-c3cc(OC)c(OC)c(OC)c3)cc(C(=O)Nc3cccc(C(C)=O)c3)c2c1 |  | < 4.10 | 4.55 | < 4.10 | < 4.10 |  | 5.27 | 5.08 | < 4.10 | 5.53 |  | 5.22 | 5.17 | < 4.10 | < 4.10 | < 4.10 | < 4.10 | 5.42 | 5.07 | 
COc1cc(-c2cc(C(=O)Nc3cccc(-c4nn[nH]n4)c3)c3ccccc3n2)cc(OC)c1OC | < 4.10 | < 4.10 | < 4.10 | < 4.10 | < 4.10 | 4.68 | 4.62 | 4.62 | 4.79 | 4.73 | 4.32 | 4.56 | 4.24 | 4.31 | 4.25 | 4.58 | 4.54 | 4.82 | 4.53 | 4.60
CCOC(=O)c1ccccc1NC(=O)c1cc(-c2cc(OC)c(OC)c(OC)c2)nc2ccccc12 | < 4.10 | < 4.10 | < 4.10 | < 4.10 | < 4.10 |  | 5.37 | 5.35 | < 4.10 | < 4.10 |  | 5.57 | 5.52 | < 4.10 | < 4.10 | < 4.10 | < 4.10 | < 4.10 | 5.19 | 
COc1ccc2c(c1OC)C(=O)N1c3ccccc3C(=O)N(Cc3ccncc3)C21 (stereo unspecified) | < 4.10 | < 4.10 | < 4.10 | < 4.10 | < 4.10 |  | < 4.10 | 4.26 | < 4.10 | < 4.10 | < 4.10 | < 4.10 | < 4.10 | < 4.10 | < 4.10 | < 4.10 | < 4.10 | < 4.10 | < 4.10 | 
COC(=O)CNC(=O)c1cccc(NC(=O)c2cc(-c3cc(OC)c(OC)c(OC)c3)nc3ccccc23)c1 | 5.12 | 5.05 | 5.03 | 5.24 | 5.20 |  | < 4.10 | 5.77 | < 4.10 | < 4.10 | 5.71 | 5.90 | 5.85 | 5.63 | 5.54 | 5.59 | 5.46 | 5.33 | 5.20 | 5.37
CCOC(=O)c1cccc(NC(=O)CNC(=O)c2cc(-c3cc(OC)c(OC)c(OC)c3)nc3ccc(F)cc23)c1 | 5.42 | 5.32 | 5.27 | 5.70 | 5.52 | 6.16 | 6.08 | 6.07 | 6.28 | 6.27 | 5.59 | 5.81 | 5.76 | 5.48 | 5.43 | 5.77 | 5.49 | 5.70 | 5.58 | 5.62
COc1cc(-c2cc(C(=O)Nc3cccc(C(C)=O)c3)c3cc(C)ccc3n2)cc(OC)c1OC | < 4.10 | < 4.10 | < 4.10 | < 4.10 | < 4.10 | 5.30 | 5.39 | 5.08 | 5.45 | 5.37 |  | 5.32 | 5.30 | < 4.10 | < 4.10 | 5.31 | 5.24 | 5.56 | 5.51 | 5.39
